What all share (assay): growth of human tumour cells (NCI), 48 h
Test [1] deals with DMS 114 small cell lung.
For test [2], the system named is SR leukemia.
Test [3] concerns SNB-78 CNS.
Test [4] deals with 786-0 renal.
Test [5] relates to DLD-1 colon.
The test system of test [6] is HOP-18 NSCLC.
Test [7] has as its system BT-549 breast.
Test [8] deals with PC-3 prostate.
Test [9] has as its system T-47D breast.
Test [10] relates to HS 578T breast.
Test [11] has as its system MDA-N.
The test system of test [12] is MDA-MB-231 breast.
For test [13], the system named is NCI/ADR-RES ovarian.

SMILES strings stand for the structures.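 Five compound concentrations were applied to cells in 96-well plates for 48 hours; endpoints were derived by simple linear interpolation of the resulting dose-response curve. Abbreviation: GI50, concentration required for 50% inhibition of growth. TGI denotes the concentration required for complete inhibition of growth.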

Among the data in PubChem BioAssay (NCI) are TGI and GI50 values, retold here.

Turning to `COc1ccc2c(c1)c(=O)c1c(NCCN(C)C)ccc3nnn2c31`, the TGI is 19.4 µM in test [1]; 2.9 µM in test [2]; 21.8 µM in test [3]; 14.8 µM in test [4]; 20 µM in [5]; 7.35 µM in test [6].
For the compound `CC(CN(C)C)C(=O)c1ccccc1` (stereo not given), the TGI in [1] was more than 57.8 µM; in [2], 60.2 µM; in [3], more than 64 µM; in test [4], more than 52.3 µM; in test [5], 32.6 µM; in [6], more than 100 µM.
Regarding `NC(Cc1ncccn1)C(=O)O` (stereo not given), the TGI in test [7], in test [2], in [4], in test [8], in test [9] and in [10] was more than 100 µM throughout. The TGI in test [11], in test [12] and in test [13] was more than 100 µM each time.
As for `O=C(NCCNc1nccc(-c2c(-c3cccc(O)c3)nc3sccn23)n1)c1ccccc1`, the GI50 is 5.68 µM in [2]; 11.9 µM in test [8]; 11 µM in test [9]; 4.86 µM in test [10]; 7.05 µM in test [12]; 34.8 µM in [13]. In addition, the TGI was 50 µM in test [2]; 65.7 µM in test [8]; 49 µM in test [9]; 38.3 µM in test [10]; 31.5 µM in test [12]; more than 100 µM in [13].
On to `ClCc1cccc(CSc2ncnc3c2ncn3Cc2cccc(CCl)c2)c1`, for which the GI50 in [7] was 1.32 µM; in [2] it was 2.82 µM; in [8], 1.67 µM; in test [9], 2.31 µM; in test [10], 5.39 µM; in test [12] it was 1.93 µM. Also, the GI50 in test [13] was 2.11 µM. The TGI in [7] was 2.83 µM; in [2] it was 9.89 µM; in [8] it was 3.34 µM; in [9], 5.12 µM; in test [10] it was more than 100 µM; in test [12], 3.82 µM. Besides, the TGI in [13] came to 6.83 µM.
Turning to `O=S(=O)(O)c1ccc2c(N=Nc3ccc(Cl)cc3)c(O)ccc2c1`, the TGI in test [7], in test [4], in test [8], in test [9], in test [10] and in test [11] was more than 100 µM throughout. The TGI in test [12] and in test [13] was more than 100 µM in each case.
`CC(C)/C(=N\[N+](C)(C)C)c1ccccc1`: the TGI in test [7], in [2], in test [4], in [8], in [9] and in test [10] was more than 100 µM in each case. In addition, the TGI in test [11], in test [12] and in test [13] was more than 100 µM each time.
On to `CCOC(=O)Cc1cnc(NC(NC(=O)CC)(C(F)(F)F)C(F)(F)F)s1`, for which the TGI in test [7], in [2], in test [9], in test [10], in [11] and in test [12] was more than 100 µM throughout.
As to `COc1c2c(cc3c1C1(O)Cc4ccc5c(c4C[N+]1(C)CC3)OCO5)OCO2` (stereo not given), the TGI in [7], in test [2], in [4], in [8], in [9] and in test [10] was more than 100 µM throughout. Also, the TGI in test [11], in test [12] and in test [13] was more than 100 µM each time.
Take `COc1ccc(C2C3CCCC(C3=O)C(c3ccc(OC)cc3)N2N=O)cc1` (stereo not given): the TGI in [1] is 47.9 µM; in test [3] it was more than 100 µM; in [5] it was more than 100 µM; in [6] it was 31 µM; in test [13], more than 87.2 µM.
For `COc1cccc2cc(C(C)=O)c(=O)oc12`, the TGI in test [7], in test [2], in [4], in [8], in test [9] and in test [10] was more than 100 µM in each case. Further, the TGI in test [11], in test [12] and in test [13] was more than 100 µM in each case.
As for `O=C(NNS(=O)(=O)c1ccccc1)c1cccnc1`, the TGI in test [7], in test [4], in [8], in [9], in [10] and in test [11] was more than 100 µM each time. The TGI in [12] and in [13] was more than 100 µM throughout.
Consider `COc1cc(C2c3cc4c(cc3[C@@H](Oc3ccc(F)cc3)C3COC(=O)[C@H]23)OCO4)cc(OC)c1O` (stereo not given in full), for which the TGI in test [5] and in test [6] was more than 100 µM each time.
Regarding `C[N+]1(CCC[N+]2(C)CC3C4C=CC(CC4)C3C2)CCOCC1` (stereo not given), the TGI in [7], in test [2], in [4], in test [8], in test [9] and in test [10] was more than 100 µM each time. In addition, the TGI in test [11], in test [12] and in test [13] was more than 100 µM throughout.
For `O=C(Nc1cccc2ccccc12)c1ccccc1`, the TGI is more than 100 µM in test [7]; more than 100 µM in test [4]; more than 100 µM in [8]; 81.6 µM in test [9]; more than 100 µM in test [10]; more than 100 µM in [11]. Further, the TGI in test [12] and in test [13] was more than 100 µM each time.
